Tests used:
Format in all cases: cell-based
[1] = tested on: NCI-H28; assay: Cell growth inhibition test (CellTiter-Glo Luminescent Cell Viability), NCI-H28; conditions: Homo sapiens; NCI-H28 cells, CellTiter-Glo; read-out: growth IC50 H28
Method: (§1) The cell growth for the compounds prepared in Examples was measured by CellTiter-Glo® Luminescednt Cell Viability (Promega, Catalog #G7571) method using NCI-H226 (addexbio), NCI-H28 (Korea Cell Line Bank) cell lines. This evaluation method is a method in which when luciferase enzyme is activated by ATP flowing out from living cells, it reacts with a luciferin substrate, and the enzyme activity at this time is measured to confirm cell viability.
(§2) Specifically, NCI-H226, and NCI-H28 cells were prepared in 100 µL of cell culture medium (RPMI medium, 10% FBS, 1% P/S, 4.5 g/L D-Glucose, 2.383 g/L HEPES Buffer, L-Glutamine, 1.5 g/L Sodium Bicarbonate, 110 mg/L Sodium pyruvate) in a white clear bottom 96-well microplate. The prepared plate was incubated in a 5% CO2 incubator at 37°C for 24 hours, and then the previously prepared compounds of Examples were finally treated at concentrations of 0.0005, 0.005, 0.05, 0.5 and 5 µM, which was repeated three times for all treatment solutions. The plates treated with the compounds of Examples were incubated in a 5% CO2 incubator at 37°C. 100 µL/well of the substrate aqueous solution containing luciferin was added to a white clear-bottom 96 well microplate, thereby initiating an enzyme reaction. The reaction was performed at room temperature in the dark for 10 minutes, and the luminescence was measured using a Flexstation3 multi-mode microplate reader. In accordance with the instructions for the CellTiter-Glo™ Luminescednt Cell Viability, the luciferase enzyme activity, which represents the amount of ATP, was measured by a chemiluminescence method, and the inhibitory activity of the compounds according to the present disclosure was calculated. The results of each compound were analyzed using Microsoft Excel, and the IC50 values were calculated using GraphPad Prism software.

[2] = tested on: NCI-H226; assay: Cell growth inhibition test (CellTiter-Glo Luminescent Cell Viability), NCI-H226; conditions: Homo sapiens; NCI-H226 cells, CellTiter-Glo; read-out: growth IC50 H226
Method: as §1, §2

[3] = tested on: transcription factor TEAD; assay: Activity inhibition test of transcription factor TEAD (ONE-Glo Luciferase assay, Hippo Pathway TEAD reporter-MCF7 recombinant cell line); conditions: Homo sapiens; TEAD Reporter-MCF7 cells, 24 hours treatment, luciferase luminescence
Method: The transcription factor TEAD activity of the compounds prepared in the Examples was measured by the ONE-Glo™ Luciferase assay (Promega, Catalog #E6110) method using the Hippo Pathway TEAD reporter-MCF7 recombinant cell line (BPS Bioscience, Catalog #60618). Specifically, the TEAD Reporter-MCF7 cell line contains the firefly luciferase gene whose expression is regulated under the control of TEAD response elements in the MCF7, which is a human breast cancer cell line. In the cell line, a non-phosphorylated YAP/TAZ exists in the nucleus in a non-stressed condition, which continuously induces expression of the luciferase reporter. TEAD Reporter-MCF7 cells were prepared in 100 µL of cell culture medium (MEM medium, 10% FBS, 1% P/S, 400 µg/mL Geneticin, 1% […], 1 mM NA pyruvate, 10 µg/mL Insulin) in a white clear bottom 96-well microplate. The prepared plate was incubated in a 5% CO2 incubator at 37°C for 24 hours, and then the previously prepared compounds of Examples were finally treated at concentrations of 0.0005, 0.005, 0.05, 0.5 and 5 µM, which were repeated three times for all treatment solutions. The plates treated with the compounds of Examples were incubated in a 5% CO2 incubator at 37°C for 24 hours. 100 µL/well of the substrate aqueous solution containing luciferin was added to a white clear-bottom 96 well microplate, thereby initiating an enzyme reaction. The reaction was performed at room temperature for 5 minutes, and the luminescence (integration time 1000 ms) was measured using a Flexstation3 multi-mode microplate reader. In accordance with the instructions for the ONE-Glo™ Luciferase Assay, the luciferase enzyme activity, which represents the activity of the transcription factor TEAD, was measured by a chemiluminescence method, and the inhibitory activity of the compound according to the present disclosure was calculated. The results of each compound were analyzed using Microsoft Excel, and the IC50 values were calculated by GraphPad Prism software.

IC50 [1] | IC50 [2] | IC50 [3] | Compound
951 nM | 9.8 nM | 25.5 nM | C=CC(=O)N1CCc2c(ccc(Nc3ccc(C(F)(F)F)cc3)c2-c2cn(C)cn2)C1 [Example 3, 1-(5-(1-methyl-1H-imidazol-4-yl)-6-((4-(trifluoromethyl)phenyl)amino)-3,4-dihydroisoquinolin-2(1H)-yl)prop-2-en-1-one]
10000 nM | 1350 nM | 4840 nM | CNS(=O)(=O)N1CCc2c(ccc(Nc3ccc(C(F)(F)F)cc3)c2-c2cn(C)cn2)C1 [Example 4, N-methyl-5-(1-methyl-1H-imidazol-4-yl)-6-((4-(trifluoromethyl)phenyl)amino)-3,4-dihydroisoquinoline-2(1H)-sulfonamide]
2000 nM | 119 nM | 602 nM | C=CC(=O)N1Cc2ccc(Nc3ccc(C(F)(F)F)cc3)c(-c3cn(C)cn3)c2C1 [Example 5, 1-(4-(1-methyl-1H-imidazol-4-yl)-5-((4-(trifluoromethyl)phenyl)amino)isoindolin-2-yl)prop-2-en-1-one]
– | – | > 10000 nM | C=CC(=O)N1CCc2ccc(Nc3ccc(F)cc3)c(-c3cn(C)cn3)c2C1 [Example 12, 1-(7-((4-fluorophenyl)amino)-8-(1-methyl-1H-imidazol-4-yl)-3,4-dihydroisoquinolin-2(1H)-yl)prop-2-en-1-one]
– | – | 242 nM | C=CC(=O)N1CCc2c(ccc(Nc3cc(Cl)cc(C(F)(F)F)c3)c2-c2cn(C)cn2)C1 [Example 22, 1-(6-((3-chloro-5-(trifluoromethyl)phenyl)amino)-5-(1-methyl-1H-imidazol-4-yl)-3,4-dihydroisoquinolin-2(1H)-yl)prop-2-en-1-one]
– | – | > 5000 nM | C=CC(=O)N1CCc2c(ccc(Nc3cc(C(F)(F)F)cc(C(F)(F)F)c3)c2-c2cn(C)cn2)C1 [Example 23, 1-(6-((3,5-bis(trifluoromethyl)phenyl)amino)-5-(1-methyl-1H-imidazol-4-yl)-3,4-dihydroisoquinolin-2(1H)-yl)prop-2-en-1-one]

More lines, now with the values behind:

Compound | IC50 [1] | IC50 [2] | IC50 [3]
C=CC(=O)N1Cc2cc(Nc3ccc(C(F)(F)F)cc3)c(-c3cn(C)cn3)cc2C1 [Example 1, 1-(5-(1-methyl-1H-imidazol4-yl)-6-((4-(trifluoromethyl)phenyl)amino)isoindolin-2-yl)prop-2-en-1-one] | 3000 nM | 21.2 nM | 42.7 nM
CNS(=O)(=O)N1Cc2cc(Nc3ccc(C(F)(F)F)cc3)c(-c3cn(C)cn3)cc2C1 [Example 2, N-methyl-5-(1-methyl-1H-imidazol-4-yl)-6-((4-(trifluoromethyl)phenyl)amino)isoindoline-2-sulfonamide] | 5200 nM | 89.8 nM | 1460 nM
CNS(=O)(=O)N1Cc2ccc(Nc3ccc(C(F)(F)F)cc3)c(-c3cn(C)cn3)c2C1 [Example 6, N-methyl-4-(1-methyl-1H-imidazol-4-yl)-5-((4-(trifluoromethyl)phenyl)amino)isoindoline-2-sulfonamide] | 6600 nM | 923 nM | 1560 nM
C=CC(=O)N1Cc2cc(Nc3ccc(F)cc3)c(-c3cn(C)cn3)cc2C1 [Example 11, 1-(5-((4-fluorophenyl)amino)-6-(1-methyl-1H-imidazol-4-yl)isoindolin-2-yl)prop-2-en-1-one] | – | – | 1890 nM
C=CC(=O)N1Cc2cc(Nc3cc(F)c(F)c(F)c3)c(-c3cn(C)cn3)cc2C1 [Example 18, 1-(5-(1-methyl-1H-imidazol-4-yl)-6-((3,4,5-trifluorophenyl)amino)isoindolin-2-yl)prop-2-en-1-one] | – | – | 239 nM
C=CC(=O)N1Cc2cc(Nc3ccc(Cl)cc3)c(-c3cn(C)cn3)cc2C1 [Example 19, 1-(5-((4-chlorophenyl)amino)-6-(1-methyl-1H-imidazol-4-yl)isoindolin-2-yl)prop-2-en-1-one] | – | – | 118 nM

From patent EP4786465A1, “NOVEL COMPOUND, AND PHARMACEUTICAL COMPOSITION FOR PREVENTION OR TREATMENT OF CANCER OR TUMORS COMPRISING SAME” (Daewoong Pharmaceutical Co., Ltd., priority 2023, dated 2025)
